Values of other authors, collected in publication PMC6861001 (Chemistry (Weinheim an der Bergstrasse, Germany), 2019).

For N[C@@H](C[SeH])C(=O)O [Sec, selenocysteine], the “pKa of selenol group” value is listed as about 5.2 and the “reduction potential E0” value is listed as −386 mV.
